Where two headings read alike, the source gives them in different places.
Columns and labels:
[1] = system: HIV-1 infection of TZM-bl cells; assay: HIV-1 infectivity enhancement assay, β-galactosidase luminescence; assay type: cell-based
[2] = assay type: physicochemical; parameters: key to Fibril / Fibril Formation / TEM 2cat / Fibril: 1 = fibrils present; 0 non-fibrillar structures; settings: for Fibril / Fibril Formation: TEM, 1 mg/mL, uranyl acetate stain, qualitative
[3] = assay type: physicochemical; settings: for ThT Cat. / ThT-Fluorescence (categorical): ThT-active if fluorescence at least twice the control
Procedure, shortened: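 Fibrils (1 mg/mL solution) were mixed with 50 µM ThT in PBS for 15 min at RT, and fluorescence was read at λex 440/λem 488 nm against a PBS blank, as a triplicate mean ± SD. Zeta potential came from electrophoretic mobility (Smoluchowski) after 1 d aggregation at 1 mg/mL in PBS pH 7.4, diluted into 1 mM KCl.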

[4] = log10 of infection relative to EF-C, Figure 6C
[5] = n-fold infection vs virus only, relative to that of EF-C, 1.3 µM peptide
[6] = Feb2021; figures match the 1.3 µM column
[7] = Feb2021; infectivity relative to virus only
[8] = Feb2021; log10 of infectivity relative to EF-C
[9] = Feb2021; n-fold infectivity relative to EF-C
[10] = infectivity class (low / medium / high) of the peptide in the sequence-pattern analysis, Fig. S22-A4; class limits not given
[11] = log10 of HIV-1 infection of TZM-bl cells relative to EF-C; Fig S15 source data; asymmetric std dev errors
[12] = ThT fluorescence relative to blank, blank = 42.1851851851852
[13] = HIV-1 infection relative to EF-C; Fig 23 plot, panels A and B; mean of 3 values
[14] = HIV-1 infection relative to EF-C; Fig 23 plot, single data point, replicate 2
[15] = HIV-1 infection relative to EF-C; Fig 23 plot, single data point, replicate 3
[16] = HIV-1 infection relative to EF-C; Fig 23 plot, single data point, replicate 1
[17] = infectivity enhancement relative to EF-C (=1); Feb2021 run
[18] = infectivity n-fold relative to virus only; Feb2021 run
[19] = log10 of infectivity relative to EF-C; Feb2021 run
[20] = ThT fluorescence relative to blank (42.1851851851852 a.u.)
[21] = Feb2021 run; infectivity n-fold relative to virus alone
[22] = Feb2021 run; log10 of infectivity relative to EF-C
[23] = Feb2021 run; n-fold infectivity relative to EF-C
[24] = infectivity class (low / medium / high) of each library peptide; main list in c1-c6, same classes repeated in sub-lists of sequences containing the hydrophobicity/charge patterns P+,H0,P+,H0,P0,H0,P0; P+,H0,P0,H0,P0,H0,P0; P+,H0,P0,H0
[25] = relative to blank 42.1851851851852 a.u.

In the case of KIWIWIW, the “Log10 Infection Rel EF-C” value [1, 4] is reported as -0.2793, the “Inf. rel. EF-C” value [1, 5] is reported as 0.53 and the “Fibril / Fibril Formation” value [2] is reported as 1. The “ThT Cat. / ThT-Fluorescence (categorical)” value (from here on “ThT Cat. / ThT-Fluorescence”) [3] was 1 (ThT. Cat is 1, if Rel. ThT >2).

For HHHHKAKAKAKAYYYY [TM10], the “Absolute Infectivity / RLU /s (Feb2021)” value [1, 6] was 203.3 RLU /s, the “n-fold to virus (Feb2021)” value [1, 7] was 0.5495 and the “Log10 of Rel to EFC (Feb2021)” value [1, 8] was -1.883. The “Rel-to EFC (Feb-2021)” value [1, 9] was 0.01308, the infectivity [1, 10] was “low” and the “Log10 Inf. rel. to EF-C” value [1, 11] was -1.883. The “TEM: 1= fibrils, 0= aggregates (micelle), 0.5 = aggregates and fibrils, -1 = nothing obersved, STD prep” value (from here on “TEM: 1= fibrils, 0= aggregates (micelle)”) [2] was 0, the “Tht rel to blank (42.1851851851852)” value [3, 12] was 1.39 and the “Tht category (> 1.5 to blank = +)” value ([3]; category 1/0) was 0 (ThT-inactive (N-Fold <2)).

With CRLSLSLS the “Inf. rel. EF-C” value [1, 13] was 0.3134, the “Inf. rel. EF-C” value [1, 14] was 0.2799 and the “Inf. rel. EF-C” value [1, 15] was 0.2877. The “Log10 Infection Rel EF-C” value [1, 4] was -0.5039, the “Inf. rel. EF-C” value [1, 5] was 0.31 and the “Fibril / Fibril Formation” value [2] was 1. For the same substance, the “ThT Cat. / ThT-Fluorescence” value [3] was 0 (ThT-inactive (N-Fold <2)).

For KAQCTLP, the “Inf. rel. EF-C” value [1, 13] was 0.07031, the “Inf. rel. EF-C” value [1, 16] was 0.07607 and the “Inf. rel. EF-C” value [1, 14] was 0.09243. The “Inf. rel. EF-C” value [1, 15] was 0.04244, the “Log10 Infection Rel EF-C” value [1, 4] was -1.153 and the “Inf. rel. EF-C” value [1, 5] was 0.07. The “Fibril / Fibril Formation” value [2] was 0 and the “ThT Cat. / ThT-Fluorescence” value [3] was 0 (ThT-inactive (N-Fold <2)).

In the case of EIEIQINM [TM95 / (TM75)], the infectivity [1, 10] is reported as “low”, the “Rel-to EFC (Feb-2021)” value [1, 17] is reported as 0.03629 and the “n-fold to virus (Feb2021)” value [1, 18] is reported as 1.525. For the same substance, the “Log10 Inf. rel. to EF-C” value [1, 11] was -1.44, the “Log10 of Rel to EFC (Feb2021)” value [1, 19] was -1.44 and the “TEM: 1= fibrils, 0= aggregates (micelle)” value [2] was 1. For the same substance, the “Tht rel to blank (42.1851851851852)” value [3, 20] was 1.473.

For KIKIQINMWWQ [VH11], the “n-fold to virus (Feb2021)” value [1, 21] was 134.825, the “Log10 of Rel to EFC (Feb2021)” value [1, 22] was 0.5063 and the “Rel-to EFC (Feb-2021)” value [1, 23] was 3.209. For the same substance, the infectivity [1, 24] was “high”, the infectivity [1, 10] was “high” and the “Log10 Inf. rel. to EF-C” value [1, 11] was 0.5063. The “TEM: 1= fibrils, 0= aggregates (micelle)” value [2] was 0.5, the “Tht category (> 1.5 to blank = +)” value ([3]; category 1/0) was 0 (ThT-inactive (N-Fold <2)) and the “Tht rel to blank (42.1851851851852)” value [3, 25] was 1.314.

In the case of NKGAII [reference compound], the “Log10 Infection Rel EF-C” value ([1]; log10 of infection relative to EF-C, Figure 7B) is reported as -1.2, the “Inf. rel. EF-C” value [1, 5] is reported as 0.06 and the “Fibril / Fibril Formation” value [2] is reported as 0. For the same substance, the “ThT Cat. / ThT-Fluorescence” value [3] was 0 (ThT-inactive (N-Fold <2)).

For KFKFQFNMW [BL5 / KB13], the “n-fold to virus (Feb2021)” value [1, 21] was 18.76, the “Log10 of Rel to EFC (Feb2021)” value [1, 22] was -0.3503 and the “Rel-to EFC (Feb-2021)” value [1, 23] was 0.4464. For the same substance, the infectivity [1, 24] was “medium”, the “Log10 Inf. rel. to EF-C” value [1, 11] was -0.3503 and the “TEM: 1= fibrils, 0= aggregates (micelle)” value [2] was 1. For the same substance, the “Tht category (> 1.5 to blank = +)” value ([3]; category 1/0) was 0 (ThT-inactive (N-Fold <2)) and the “Tht rel to blank (42.1851851851852)” value [3, 25] was 1.342.

For NMWQKAKAQA [JG10], the infectivity [1, 24] was “low”, the “Log10 Inf. rel. to EF-C” value [1, 11] was -1.376 and the “TEM: 1= fibrils, 0= aggregates (micelle)” value ([2]; FigS26) was 1. For the same substance, the “Tht category (> 1.5 to blank = +)” value ([3]; FigS26) was 1 (Tht category (> 1.5 to blank = +)).

For RGDKIKIQINM [MG8a / CN17], the “Absolute Infectivity / RLU /s (Feb2021)” value [1, 6] was 9554 RLU /s, the “n-fold to virus (Feb2021)” value [1, 7] was 17.36 and the “Log10 of Rel to EFC (Feb2021)” value [1, 8] was -0.3838. For the same substance, the “Rel-to EFC (Feb-2021)” value [1, 9] was 0.4132, the “n-fold to virus (Feb2021)” value [1, 21] was 17.36 and the “Log10 of Rel to EFC (Feb2021)” value [1, 22] was -0.3838. The “Rel-to EFC (Feb-2021)” value [1, 23] was 0.4132, the infectivity [1, 24] was “medium” and the “Rel-to EFC (Feb-2021)” value [1, 17] was 0.4132. For the same substance, the “n-fold to virus (Feb2021)” value [1, 18] was 17.36, the “Log10 Inf. rel. to EF-C” value [1, 11] was -0.3838 and the “Log10 of Rel to EFC (Feb2021)” value [1, 19] was -0.3838. The “TEM: 1= fibrils, 0= aggregates (micelle)” value [2] was 1, the “Tht rel to blank (42.1851851851852)” value [3, 20] was 9.126 and the “Tht rel to blank (42.1851851851852)” value [3, 12] was 9.126. For the same substance, the “Tht category (> 1.5 to blank = +)” value ([3]; category 1/0) was 1 (ThT. Cat is 1, if Rel. ThT >2) and the “Tht rel to blank (42.1851851851852)” value [3, 25] was 9.126.

For KVKVQVVV [TG8], the “Absolute Infectivity / RLU /s (Feb2021)” value [1, 6] was 820 RLU /s, the “n-fold to virus (Feb2021)” value [1, 7] was 1.473 and the “Log10 of Rel to EFC (Feb2021)” value [1, 8] was -1.455. For the same substance, the “Rel-to EFC (Feb-2021)” value [1, 9] was 0.03506, the infectivity [1, 24] was “low” and the infectivity [1, 10] was “low”. The “Rel-to EFC (Feb-2021)” value [1, 17] was 0.03506, the “n-fold to virus (Feb2021)” value [1, 18] was 1.473 and the “Log10 Inf. rel. to EF-C” value [1, 11] was -1.455. The “Log10 of Rel to EFC (Feb2021)” value [1, 19] was -1.455, the “TEM: 1= fibrils, 0= aggregates (micelle)” value [2] was 1 and the “Tht rel to blank (42.1851851851852)” value [3, 20] was 0.8863. The “Tht rel to blank (42.1851851851852)” value [3, 12] was 0.8863 and the “Tht category (> 1.5 to blank = +)” value ([3]; category 1/0) was 0 (ThT-inactive (N-Fold <2)).

With RVHLGLG the “Inf. rel. EF-C” value [1, 13] was 0.0206, the “Inf. rel. EF-C” value [1, 16] was 0.01527 and the “Inf. rel. EF-C” value [1, 14] was 0.01985. For the same substance, the “Inf. rel. EF-C” value [1, 15] was 0.02667, the “Log10 Infection Rel EF-C” value [1, 4] was -1.686 and the “Inf. rel. EF-C” value [1, 5] was 0.02. For the same substance, the “Fibril / Fibril Formation” value [2] was 1 and the “ThT Cat. / ThT-Fluorescence” value [3] was 0 (ThT-inactive (N-Fold <2)).

Source: article PMC10447463, “Data-mining unveils structure–property–activity correlation of viral infectivity enhancing self-assembling peptides” (Nature Communications, 2023)
